Laboratory results reported in patent US7348178B1, “Recombinant adenoviral vector system” (priority 1994, dated 2008).
Entries after “also recorded” stand apart in the source; their conditions may differ.

Legend:
Assay type in all cases: cell-based, human
[1] = system: wild type Ad-infected 293 cells; assay: Ad-induced CPE in infected 293 cells, photographed; conditions: wild type Ad 50 PFU per cell, 20 mM 2AP added 2 h post infection, 24 and 48 h
Description: FIG. 5. Prevention of adenovirus induced CPE and facilitated cell lysis or loss of metabolic function during expression of late viral genes. Cells were infected at 50 PFU per cell with wild type Ad, and 20 mM 2-aminopurine (2AP) was added to duplicate plates 2 h post infection for up to 48 h. Cells were photographed at 24 and 48 h. […] Late Ad polypeptides can therefore be expressed in this system for the duration of several days without facilitating cell lysis and CPE that would limit their expression.
Ad 300 is a wild type strain 5 isolate (H5wl300) originally purified by H. Ginsberg is available through the ATCC. Ad2 ts1 is described in Chen et al., 1993, J. Virol. 67:3507-3514. 293 cells are human embryonic kidney cell line that express the E1 region of Ad5 (Graham et al., 1977, J. Gen. Virol. 36:59-72). 293 and HeLa cells were cultured in Dulbecco's modified Eagle's medium (DMEM) containing 10% calf serum. Virus stocks were grown and titers were determined on 293 cells. RD (human rhabdosarcoma) cells were obtained from the American Type Culture Collection and grown in DMEM containing 15% fetal bovine serum. 2AP was prepared and used as previously described (Huang & Schneider, 1990, PNAS USA 87:7115-7119). Infections of cells with viruses were typically carried out for 1 h with 50 PFU per cell unless otherwise noted. […]

[2] = system: uninfected 293 cells; assay: Drug cytotoxicity in uninfected 293 cells; conditions: 20 mM 2AP, 48 h posttreatment
[3] = system: wild type Ad-infected 293 cells; assay: [35S]methionine labeling, SDS-PAGE: Ad shutoff of cell protein synthesis
Description: FIG. 7. […] Uninfected and wild type Ad-infected 293 cells were labeled with [^35S]methionine at 24 h post infection and duplicate plates were treated with 10 mM 2AP, added 1 to 2 h after infection. Equal amounts of protein from labeled extracts were analyzed by SDS-polyacrylamide gel electrophoresis and fluorographed. Ad late polypeptides correspond to proteins II, III, IV, V, pIV, pVIII, pVI, and IX.
Cells were labeled with [^35S]methionine for 1 to 2 h by using 50 μCi of trans[^35S]methionine (ICN) per ml in DMEM lacking methionine and supplemented with 2% calf serum. Cell extracts were prepared by sonication of washed cells in 10 mM KC1-10 mM Tris (pH 7.4)−1 mM EDTA at 4° C. and cleared of debris by centrifugation at 10,000 rpm equal amounts of protein were analyzed in sodium dodecyl sulfate (SDS)-polyacrylamide gels. Gels were fluorographed and quantitated by densitometry.
293 cells were treated with 2AP for the duration of infection, starting shortly after the addition of virus. Duplicate plates of cells were then labeled with [^35S]methionine, and extracts were analyzed by SDS-polyacrylamide gel electrophoresis (FIG. 7) or photographed at various times after infection for evidence of CPE (see FIG. 5).

[4] = system: cytokeratin network of 293 cells infected with Ad2 ts1; assay: Indirect immunofluorescence of keratin K18 network in Ad2 ts1-infected 293 cells; conditions: Ad ts1 infection at 39.5° C. plus 2AP, fixed 22 h post infection
Description: FIG. 6. […] 293 cells were infected with Ad2 ts1 at 4,000 particles per cell, a 25 plaque forming unit (PFU) per cell equivalent, given the high particle/PFU ratio for this mutant, in the presence or absence of 2AP at 32° C. or 39.5° C. […] Cells were fixed and processed for indirect immunofluorescence, using a keratin K18-specific antibody. Cells infected at 32° C. were fixed at 40 h post infection, cells infected at 39.5° C. were fixed at 22 h post infection. By preventing Ad viral proteolysis of keratin K18, viral induced CPE and early cell lysis can be controlled.
Cells were grown on coverslips, fixed with paraformaldehyde, and permeabilized with Triton X-100. Mouse monoclonal antibodies directed against vimentin were purchased from Boehringer Mannheim Biochemicals. A mouse monoclonal antibody specific for keratins K18 (KS-B17.2) and K1, 5 to 8, 10, 11, and 18 (no. 8.13) were from Sigma Chemical Co. Fluorescein isothiocyanate-conjugated rabbit anti-mouse antibodies were purchased from Sigma. Cells were photographed under visible or ultraviolet light using a Zeiss photomicroscope.
Experiments were performed to test whether coupled shutoff of host protein synthesis and cleavage of cytokeratins truly correlates with development of CPE. […] Cells were infected with […] at permissive (32° C.) and restrictive (39.5° C.) temperatures. […]

SMILES: Nc1ncc2[nH]cnc2n1 [2AP, 2-aminopurine]
- Ad-induced CPE [1]: largely prevented detectable CPE; also recorded: significantly reduced cytopathic effect; also recorded: only slight CPE
- cytotoxicity [2]: little detectable cytotoxicity
- shutoff of cell protein synthesis / translation ([3]; 10 mM 2AP added 1 to 2 h after infection, labeled 24 h post infection): prevents the shutoff of translation of cellular and early Ad mRNAs; also recorded: prevent Ad shutoff of cell protein synthesis
- levels of cellular polypeptide synthesis and of Ad mRNAs lacking the tripartite leader ([3]; 2AP-treated infected 293 cells): significantly elevated
- keratin network integrity [4]: remarkably well preserved
